Key:
BTK = target: T1, BTK (Mus musculus, UniProt P35991); assay: In vivo degradation of BTK in mouse PD experiments with oral dosing
T1 construct: from tissue; host or cells: mouse blood B cells / splenocytes (CD-1 or BALB/c)
Method: A method of determining the pharmacodynamic profile of BTK degraders was performed by dosing either CD-1 or BALB/c mice with CTM. The CTM was prepared in a suitable formulation and was administered via oral gavage (PO) at a suitable dose level and frequency as informed by prior pharmacokinetic and tolerability studies. Following administration of CTM, BTK levels in blood or splenocytes are measured using flow cytometry or HTRF. For assessment of BTK levels via flow cytometry, either whole blood or splenocytes were first treated with ACK RBC lysis buffer to facilitate lysing of red blood cells. Remaining cells were then stained with fluorophore-conjugated antibodies against CD45, TCR beta and CD45R (B220). Cell pellets were washed with 1×PBS, fixed, and permeabilized for twenty-four hours with Foxp3/Transcription Factor Fixation/Permeabilization Kit. Cells were then stained intracellularly with unconjugated BTK antibody and detected with a fluorophore-conjugated secondary antibody. Stained cells were run on an Attune N×T Acoustic Focusing Flow Cytometer (Thermo-Fisher A29004), and data was analyzed using FlowJo (v10.5.3) and GraphPad Prism (v7.00) software. Lymphocytes were gated for B cells defined as CD45+ TCR beta−B220+ and T cells as CD45+ TCR beta+B220−. The BTK geometric mean fluorescence intensity (MFI) was calculated for B and T cells. Percent BTK degradation for each compound-treated sample was calculated using the equation described below: % Degradation=100*(Treated sample B cell BTK MFI-treated sample T cell BTK MFI)/Vehicle B cell BTK MFI-Vehicle T cell BTK MFI)
This example evaluates in vivo activity of BTK CTMs via a direct mouse PD measurement following oral dosing
Screens were completed at 90 mg/kg for six hours, and then changed to lower doses/longer time points after seeing strong BTK degradation activity with an initial set of compounds. This assay was useful in selecting compounds for in vivo efficacy experiments.

TMD8 cells = assay: Cell viability assay (CellTiter-Glo), TMD8 cells; settings: for EC50: Homo sapiens, TMD8, 72 h; for EMAX (% viable cells): TMD8 cells, treatment time 72 h
TMD8 C481S cells = assay: Cell viability assay (CellTiter-Glo), TMD8 C481S cells; settings: for EC50: Homo sapiens, TMD8, 72 h; for EMAX (% viable cells): TMD8 C481S cells, treatment time 72 h
[1] = oral dose 30 mg/kg, 24 h, blood, flow cytometry
[2] = oral dose 90 mg/kg, 6 h, splenocytes, HTRF

T1 sequence (P35991 whole entry): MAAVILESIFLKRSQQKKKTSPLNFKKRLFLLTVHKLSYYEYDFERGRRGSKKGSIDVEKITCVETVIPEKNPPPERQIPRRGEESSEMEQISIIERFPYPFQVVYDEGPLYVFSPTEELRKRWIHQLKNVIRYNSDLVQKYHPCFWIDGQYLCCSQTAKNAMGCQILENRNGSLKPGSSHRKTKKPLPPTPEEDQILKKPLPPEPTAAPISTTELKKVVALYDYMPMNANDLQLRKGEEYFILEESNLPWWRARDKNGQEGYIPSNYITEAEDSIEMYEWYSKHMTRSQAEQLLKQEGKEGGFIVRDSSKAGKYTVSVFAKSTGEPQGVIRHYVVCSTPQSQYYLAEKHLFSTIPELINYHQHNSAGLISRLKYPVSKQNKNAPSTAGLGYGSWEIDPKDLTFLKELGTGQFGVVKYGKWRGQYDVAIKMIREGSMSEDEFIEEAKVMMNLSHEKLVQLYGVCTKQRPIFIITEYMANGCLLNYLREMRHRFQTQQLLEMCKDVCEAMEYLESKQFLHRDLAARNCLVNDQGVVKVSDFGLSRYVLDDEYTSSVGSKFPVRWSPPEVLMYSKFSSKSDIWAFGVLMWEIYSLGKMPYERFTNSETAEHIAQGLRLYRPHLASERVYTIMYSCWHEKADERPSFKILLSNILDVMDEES

| Compound | EC50 (TMD8 cells) | EMAX (% viable cells) (TMD8 cells) | EC50 (TMD8 C481S cells) | EMAX (% viable cells) (TMD8 C481S cells) | % BTK Remaining (BTK; [2]) | also measured |
| --- | --- | --- | --- | --- | --- | --- |
| CN1CCN([C@H]2CCCN(c3cnc(C(N)=O)c(Nc4ccc(N5CCC6(CCN(c7ccc8c(c7)C(=O)N(C7CCC(=O)NC7=O)C8=O)CC6)CC5)nc4)n3)C2)C1=O (some centres unmarked) [Compound 80] | 45.2 nM | 45% | 125 nM | 78% | – | % BTK Remaining (BTK; oral dose 0.3 mg/kg, 24 h, blood, flow cytometry): 88%; % BTK Remaining (BTK; oral dose 0.3 mg/kg, 24 h, splenocytes, flow cytometry): 115%; % BTK Remaining (BTK; oral dose 3 mg/kg, 6 h, blood, flow cytometry): 96%; % BTK Remaining (BTK; oral dose 3 mg/kg, 24 h, blood, flow cytometry): 77%; % BTK Remaining (BTK; oral dose 3 mg/kg, 24 h, splenocytes, flow cytometry): 111%; % BTK Remaining (BTK; oral dose 10 mg/kg, 24 h, blood, flow cytometry): 59%; % BTK Remaining (BTK; oral dose 10 mg/kg, 24 h, splenocytes, flow cytometry): 74%; % BTK Remaining (BTK; [1]): 52%; % BTK Remaining (BTK; oral dose 30 mg/kg, 24 h, splenocytes, flow cytometry): 69%; % BTK Remaining (BTK; oral dose 90 mg/kg, 24 h, blood, flow cytometry): 48%; % BTK Remaining (BTK; oral dose 90 mg/kg, 24 h, splenocytes, flow cytometry): 65% |
| CN1CCN([C@@H]2CCCN(c3cnc(C(N)=O)c(Nc4ccc(C5CCN(C[C@H]6CCN(c7ccc8c(=O)n(C9CCC(=O)NC9=O)ccc8c7)C6)CC5)cc4)n3)C2)C1=O (some centres unmarked) [Compound 115] | 2.74 nM | 13% | 1.93 nM | 16% | – | % BTK Remaining (BTK; [1]): 30% |
| CN1CCN([C@@H]2CCCN(c3cnc(C(N)=O)c(Nc4ccc(C5CCN(C[C@H]6CCN(c7ccc8c(c7)C(=O)N([C@@H]7CCC(=O)NC7=O)C8=O)C6)CC5)nc4)n3)C2)C1=O [Compound 207] | – | – | 0.009 nM | 54% | – | % BTK Remaining (BTK; oral dose 30 mg/kg, 24 h, splenocytes, HTRF): 46% |
| CN1CCN([C@@H]2CCCN(c3cnc(C(N)=O)c(Nc4cnn(C5CN(CC6CCN(c7ccc8c(c7)C(=O)N([C@@H]7CCC(=O)NC7=O)C8=O)CC6)C5)c4)n3)C2)C1=O [Compound 209] | 7.41 nM | 49% | 55.2 nM | 44% | – | – |
| CN1CCN([C@@H]2CCCN(c3cnc(C(N)=O)c(Nc4ccc(N5CCN(CC6CCN(c7ccc8c(c7)C(=O)N(C7CCC(=O)NC7=O)C8=O)CC6)CC5)cc4)n3)C2)C1=O (some centres unmarked) [Compound 49] | 0.61 nM | 28% | 3.86 nM | 23% | <1% | – |
| CN1CCN([C@@H]2CCCN(c3cnc(C(N)=O)c(Nc4ccc(C5CCN(c6ccc7c(c6)C(=O)N(C6CCC(=O)NC6=O)C7=O)CC5)cc4)n3)C2)C1=O (some centres unmarked) [Compound 47] | 3.83 nM | 39% | 43.5 nM | 61% | 80% | – |
| CN1CCN([C@@H]2CCCN(c3cnc(C(N)=O)c(Nc4ccc(C5CCN(CC6CN(c7ccc8c(c7)C(=O)N(C7CCC(=O)NC7=O)C8=O)C6)CC5)cc4)n3)C2)C1=O (some centres unmarked) [Compound 54] | 0.61 nM | 13% | 7.11 nM | 6% | 1% | – |
| CN1CCN([C@@H]2CCCN(c3cnc(C(N)=O)c(Nc4ccc(N5CCN(CC6CN(c7ccc8c(c7)C(=O)N(C7CCC(=O)NC7=O)C8=O)C6)CC5)cc4)n3)C2)C1=O (some centres unmarked) [Compound 60] | 0.97 nM | 20% | 8.37 nM | 26% | 3% | – |
| CN1CCN([C@@H]2CCCN(c3cnc(C(N)=O)c(Nc4ccc(N5CCC6(CCN(Cc7ccc8c(c7)CN([C@@H]7CCC(=O)NC7=O)C8=O)CC6)CC5)cc4)n3)C2)C1=O [Compound 210] | 5.61 nM | 32% | 5.29 nM | 40% | – | – |
| CN1CCN([C@@H]2CCCN(c3cnc(C(N)=O)c(Nc4ccc(C5CCN(C[C@@H]6CCCN(c7ccc8c(c7)C(=O)N(C7CCC(=O)NC7=O)C8=O)C6)CC5)cc4)n3)C2)C1=O (stereo partly drawn) [Compound 32, 3-((4-(1-(((3S)-1-(2-(2,6-dioxopiperidin-3-yl)-1,3-dioxoisoindolin-5-yl)piperidin-3-yl)methyl)piperidin-4-yl)phenyl)amino)-5-((R)-3-(3-methyl-2-oxoimidazolidin-1-yl)piperidin-1-yl)pyrazine-2-carboxamide] | – | – | – | – | – | % BTK Remaining (BTK; oral dose 1 mg/kg, 6 h, splenocytes, HTRF): 93% |
| NC(=O)c1ncc(N2CCC[C@@H](N3CCOC3=O)C2)nc1Nc1ccc(C2CCN(CC3CCN(c4ccc5c(=O)n(C6CCC(=O)NC6=O)ccc5c4)CC3)CC2)cc1 (some centres unmarked) [Compound 153] | – | – | – | – | – | % BTK Remaining (BTK; [1]): 33% |

Reference: patent US12600732B2, “Bifunctional compounds for degrading BTK via ubiquitin proteosome pathway” (NURIX THERAPEUTICS, INC., priority 2019, dated 2026)
